This assay concerns Glo-Response ARE-luc2P HEK293 cell line. The assay can be described thus: ARE luciferase reporter cell-based assay.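 Note: luciferase signal tracks Nrf2 activation of the ARE once compounds disrupt KEAP1-Nrf2 binding, read with One-Glo reagent, DMSO serving as low control.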 The following applies: Homo sapiens, HEK293, 24 h, average of results obtained. For orientation: Reporter assays use an easily measured gene product as a stand-in for the process of interest.

On to `Cc1cc2cc([C@@H](c3ccc(C)c(CN4CC5(CC5)Oc5nc(OCCN6CCCC6)c(C)cc5S4(=O)=O)c3)C(C)(C)C(=O)O)n(C)c2nn1` (single isomer, unassigned) [Example 352, (*S)-3-(3,7-Dimethyl-7H-pyrrolo[2,3-c]pyridazine-6-yl)-2,2-dimethyl-3-(4-methyl-3-((8′-methyl-1′,1′-dioxido-7′-(2-(pyrrolidin-1-yl)-ethoxy)spiro[cyclopropane-1,4′-pyrido[2,3-b][1,4,5]oxathiazepin]-2′,(3′H)-yl)methyl)phenyl)propanoic Acid], for which the response was half-maximal at 43.7 nM (EC50). On to `CCn1nnc2c(C)c(C(CC(=O)O)c3ccc(C)c(CN4C[C@@H]5COCCN5c5ncccc5S4(=O)=O)c3)ccc21` (mixture of isomers) [Example 138, (R/S)-3-(3-(((*R)-5,5-Dioxido-7a,8,10,11-tetrahydro-[1,4]oxazino[3,4-d]pyrido[2,3-f][1,2,5]thiadiazepin-6(7H)-yl)methyl)-4-methylphenyl)-3-(1-ethyl-4-methyl-1H-benzo[d][1,2,3]triazol-5-yl)propanoic Acid], for which the 50% effective concentration (EC50) (in general, the midpoint of the concentration-response curve) was determined as 14 nM. The same measure for `CCn1nnc2c(C)c([C@H](CC(=O)O)c3ccc(C)c(CN4C[C@@H]5CCCCN5c5ncccc5S4(=O)=O)c3)ccc21` (single isomer, unassigned) [Example 143, (*R)-3-(3-(((*S)-5,5-Dioxido-7,7a,8,9,10,11-hexahydro-6H-dipyrido[2,1-d:2′,3′-f][1,2,5]thiadiazepin-6-yl)methyl)-4-methylphenyl)-3-(1-ethyl-4-methyl-1H-benzo[d][1,2,3]triazol-5-yl)propanoic Acid]: 45 nM.

In the case of `Cc1cnc2c(c1)S(=O)(=O)N(Cc1cc(C(c3ccn4c(C(F)(F)F)nnc4c3C)C(C)(C)C(=O)O)ccc1C)CC1(CCOCC1)O2` (stereo not shown) [Example 17, 2,2-Dimethyl-3-(4-methyl-3-((8′-methyl-1′,1′-dioxido-2,3,5,6-tetrahydrospiro[pyran-4,4′-pyrido[2,3-b][1,4,5]oxathiazepin]-2′(3′H)-yl)methyl)phenyl)-3-(8-methyl-3-(trifluoromethyl)-[1,2,4]triazolo[4,3-a]pyridin-7-yl)propanoic Acid], the EC50 is 3.6 nM. The figure for `Cc1cnc([C@H](c2ccn3c(C(F)F)nnc3c2C)C(C)(C)C(=O)O)cc1CN1CC2(CCOCC2)Oc2nc(OCCN3CCCCC3)c(C)cc2S1(=O)=O` (single isomer, unassigned) [Example 641, (*R)-3-(3-(Difluoromethyl)-8-methyl-[1,2,4]triazolo[4,3-a]pyridin-7-yl)-2,2-dimethyl-3-(5-methyl-4-((8′-methyl-1′,1′-dioxido-7′-(2-(piperidin-1-yl)ethoxy)-2,3,5,6-tetrahydrospiro[pyran-4,4′-pyrido[2,3-b][1,4,5]oxathiazepin]-2′(3′H)-yl)methyl)pyridin-2-yl)propanoic Acid] is 2290 nM. The figure for `CCn1nnc2c(C)c([C@H](c3ccc(C)c(CN4CC5(CCOCC5)Oc5ncccc5S4(=O)=O)c3)C(C)(C)C(=O)O)ccc21` (single isomer, unassigned) [Example 15, (*S)-3-(3-((1′,1′-Dioxido-2,3,5,6-tetrahydrospiro[pyran-4,4′-pyrido[2,3-b][1,4,5]oxathiazepin]-2′(3′H)-yl)methyl)-4-methylphenyl)-3-(1-ethyl-4-methyl-1H-benzo[d][1,2,3]triazol-5-yl)-2,2-dimethylpropanoic Acid] is 0.3 nM. Consider `Cc1cnc2c(c1)S(=O)(=O)N(Cc1cc(C(CC(=O)O)c3ccn4c(C(F)F)nnc4c3C)ccc1C)C[C@H]1CCCCN21` (stereo in doubt) [Example 502, 3-(3-(Difluoromethyl)-8-methyl-[1,2,4]triazolo[4,3-a]pyridin-7-yl)-3-(4-methyl-3-(((*R)-3-methyl-5,5-dioxido-7,7a,8,9,10,11-hexahydro-6H-dipyrido[2,1-d:2′,3′-f][1,2,5]thiadiazepin-6-yl)methyl)phenyl)propanoic Acid], for which a half-maximal effect (EC50) was put at 3.92 nM. The same measure for `CCn1nnc2c(C)c([C@H](CC(=O)O)c3ccc(C)c(CN4C[C@@H]5CCCN5c5ccccc5S4(=O)=O)c3)ccc21` (relative stereo) [Example 149, (*R)-3-[3-[(5,5-Dioxo-7a,8,9,10-tetrahydro-7H-pyrrolo[2,1-d][1,2,5]benzothiadiazepin-6-yl)methyl]-4-methyl-phenyl]-3-(1-ethyl-4-methyl-benzotriazol-5-yl)propanoic Acid]: 250 nM; for `Cc1ccc([C@H](CC(=O)O)c2ccc3c(nnn3CC3CC3)c2C)cc1CN1C[C@]2(C)CCCN2c2ncccc2S1(=O)=O` (relative stereo) [Example 12, (*S)-3-(1-(Cyclopropylmethyl)-4-methyl-1H-benzo[d][1,2,3]triazol-5-yl)-3-(4-methyl-3-(((*S)-7a-methyl-5,5-dioxido-7a,8,9,10-tetrahydropyrido[2,3-f]pyrrolo[2,1-d][1,2,5]thiadiazepin-6(7H)-yl)methyl)phenyl)propanoic Acid]: 2.7 nM; for `Cc1cnc2c(c1)S(=O)(=O)N(Cc1cc([C@@H](c3ccc4c(nnn4C4CC4)c3C)C(C)(C)C(=O)O)ccc1C)CC1(CNC1)O2` (single isomer, unassigned) [Example 646, (*S)-3-(1-Cyclopropyl-4-methyl-1H-benzo[d][1,2,3]triazol-5-yl)-2,2-dimethyl-3-(4-methyl-3-((8′-methyl-1′,1′-dioxidospiro[azetidine-3,4′-pyrido[2,3-b][1,4,5]oxathiazepin]-2′(3′H)-yl)methyl)phenyl)propanoic Acid]: 66.7 nM. As for `CCn1nnc2c(C)c([C@H](c3ccc(C)c(CN4CC5(CCOCC5)Oc5ncc(C)cc5S4(=O)=O)c3)C(C)(C)C(=O)O)ccc21` (single isomer, unassigned) [Example 421, (*R)-3-(1-ethyl-4-methyl-1H-benzo[d][1,2,3]triazol-5-yl)-2,2-dimethyl-3-(4-methyl-3-((8′-methyl-1′,1′-dioxido-2,3,5,6-tetrahydrospiro[pyran-4,4′-pyrido[2,3-b][1,4,5]oxathiazepin]-2′(3′H)-yl)methyl)phenyl)propanoic Acid], it took 0.24 nM to reach a half-maximal effect (EC50).

Compound `Cc1ccc([C@H](CC(=O)O)c2ccn3c(C(F)(F)F)nnc3c2C)cc1CN1C[C@@H]2CCCCN2c2ncc(F)cc2S1(=O)=O` (relative stereo) [Example 309, (*S)-3-(3-(((*S)-3-fluoro-5,5-dioxido-7,7a,8,9,10,11-hexahydro-6H-dipyrido[2,1-d:2′,3′-f][1,2,5]thiadiazepin-6-yl)methyl)-4-methylphenyl)-3-(8-methyl-3-(trifluoromethyl)-[1,2,4]triazolo[4,3-a]pyridin-7-yl)propanoic Acid] showed an EC50 of 0.9 nM.

On to `Cc1ccc([C@H](CC(=O)O)c2ccn3c(C(F)(F)F)nnc3c2C)cc1CN1CC2(CC2)Oc2nc(N(C)CCO)ccc2S1(=O)=O` (single isomer, unassigned) [Example 110, (*S)-3-(-3-((7′-((3-Hydroxyethyl)(methyl)amino)-1′,1′-dioxidospiro[cyclopropane-1,4′-pyrido[2,3-b][1,4,5]oxathiazepin]-2′(3′H)-yl)methyl)-4-methylphenyl)-3-(8-methyl-3-(trifluoromethyl)-[1,2,4[triazolo[4,3-a]pyridine-7-yl)propanoic Acid], for which the EC50 was 485 nM. The same measure for `Cc1ccc([C@H](CC(=O)O)c2ccn3c(C(F)(F)F)nnc3c2C)cc1CN1C[C@@H]2CCCN2c2ncc(C#N)cc2S1(=O)=O` (relative stereo) [Example 206, (*S)-3-(3-(((S)-3-Cyano-5,5-dioxido-7a,8,9,10-tetrahydropyrido[2,3-f]pyrrolo[2,1-d][1,2,5]thiadiazepin-6(7H)-yl)methyl)-4-methylphenyl)-3-(8-methyl-3-(trifluoromethyl)-[1,2,4]triazolo[4,3-a]pyridin-7-yl)propanoic Acid]: 14 nM; for `Cc1ccc([C@@H](c2ccn3c(C(F)(F)F)nnc3c2C)C(C)(C)C(=O)O)cc1CN1CC2(CCOCC2)Oc2nc(OCCN3CCCCC3)ccc2S1(=O)=O` (single isomer, unassigned) [Example 127]: 11.8 nM; for `Cc1ncc([C@H](c2ccn3c(C(F)(F)F)nnc3c2C)C(C)(C)C(=O)O)cc1CN1C[C@H]2CCCCN2c2ncc(C#N)cc2S1(=O)=O` (relative stereo) [Example 656, (*S)-3-(5-(((*R)-3-Cyano-5,5-dioxido-7,7a,8,9,10,11-hexahydro-6H-dipyrido[2,1-d:2′,3′-f][1,2,5]thiadiazepin-6-yl)methyl)-6-methylpyridin-3-yl)-2,2-dimethyl-3-(8-methyl-3-(trifluoromethyl)-[1,2,4]triazolo[4,3-a]pyridin-7-yl)propanoic Acid]: 3590 nM. The figure for `Cc1cnc2c(c1)S(=O)(=O)N(Cc1cc([C@@H](CC(=O)O)c3ccn4c(C(F)(F)F)nnc4c3C)ccc1Cl)CC1CCCCN21` (stereo in doubt) [Example 90, (*R)-3-(4-Chloro-3-(((*S)-3-methyl-5,5-dioxido-7,7a,8,9,10,11-hexahydro-6H-dipyrido[2,1-d:2′,3′-f][1,2,5]thiadiazepin-6-yl)methyl)phenyl)-3-(8-methyl-3-(trifluoromethyl)-[1,2,4]triazolo[4,3-a]pyridine-7-yl)propanoic Acid] is 4.2 nM. The figure for `Cc1cnc2c(c1)S(=O)(=O)N(Cc1cc([C@@H](c3ccn4c(C(F)(F)F)nnc4c3C)C(C)C(=O)O)ccc1C)C[C@@H]1CCCCN21` (relative stereo) [Example 514, (3*S)-2-Methyl-3-(4-methyl-3-(((*S)-3-methyl-5,5-dioxido-7,7a,8,9,10,11-hexahydro-6H-dipyrido[2,1-d:2′,3′-f][1,2,5]thiadiazepin-6-yl)methyl)phenyl)-3-(8-methyl-3-(trifluoromethyl)-[1,2,4]triazolo[4,3-a]pyridin-7-yl)propanoic Acid] is 1.7 nM; for `Cc1ccc([C@H](c2ccn3c(C(F)F)nnc3c2C)C(C)(C)C(=O)O)cc1CN1CC2(CC2)Oc2ncccc2S1(=O)=O` (single isomer, unassigned) [Example 568, (*R)-3-(3-(Difluoromethyl)-8-methyl-[1,2,4]triazolo[4,3-a]pyridin-7-yl)-3-(3-((1′,1′-dioxidospiro[cyclopropane-1,4′-pyrido[2,3-b][1,4,5]oxathiazepin]-2′(3′H)-yl)methyl)-4-methylphenyl)-2,2-dimethylpropanoic Acid] it is 192 nM.

The values above are taken from US10947252B2, “Inhibitors of KEAP1-Nrf2 protein-protein interaction” (Janssen Pharmaceutica NV, priority 2018, dated 2021).
